Test results taken from patent publication US20240270821A1, “GIP/GLP1/GCG TRI-RECEPTOR AGONISTS AND USES THEREOF” (priority 2023, published 2024).
Read-outs that look alike come from different tables or passages of the source. Starred links: 1 amine or outer side, 2 acyl side, 3 side chain; linkers in the order of their positions; H or OH if unused. Non-standard residues stand in square brackets, D forms with d. Groups on a side chain read outwards from the residue. *: point of attachment. C18 diacid = O=C(O)CCCCCCCCCCCCCCCCC(=O)*; γGlu = O=C(O)[C@H](CCC(=O)[*:2])N[*:1]; αMe4Pal = C[C@](N)(Cc1ccncc1)C(=O)O; αMeY = C[C@](N)(Cc1ccc(O)cc1)C(=O)O; 4Pal = N[C@@H](Cc1ccncc1)C(=O)O; αMeL = CC(C)C[C@](C)(N)C(=O)O; αMeS = C[C@](N)(CO)C(=O)O; Orn = NCCC[C@H](N)C(=O)O; Aib = CC(C)(N)C(=O)O

What was measured:
Assay type in all cases: cell-based
[1] = target: T1, hGIPR (Homo sapiens, UniProt P48546); assay: Functional cAMP activity in the presence of 1% HSA
T1 sequence (P48546 22-466): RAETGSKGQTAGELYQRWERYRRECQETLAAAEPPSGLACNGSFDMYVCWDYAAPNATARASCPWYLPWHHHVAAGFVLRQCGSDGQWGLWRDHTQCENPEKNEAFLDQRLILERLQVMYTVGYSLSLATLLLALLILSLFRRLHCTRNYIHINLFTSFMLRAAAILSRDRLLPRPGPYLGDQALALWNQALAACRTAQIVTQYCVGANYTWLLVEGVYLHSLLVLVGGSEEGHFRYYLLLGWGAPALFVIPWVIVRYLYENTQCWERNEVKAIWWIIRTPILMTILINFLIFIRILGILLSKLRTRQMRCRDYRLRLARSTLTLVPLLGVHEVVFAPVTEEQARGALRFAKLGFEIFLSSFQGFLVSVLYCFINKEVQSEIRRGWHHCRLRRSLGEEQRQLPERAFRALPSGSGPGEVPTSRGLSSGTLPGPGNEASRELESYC

[2] = target: T2, hGLP-1R (Homo sapiens, UniProt P43220); assay: Functional cAMP activity in the presence of 1% HSA
T2 sequence (P43220 24-463): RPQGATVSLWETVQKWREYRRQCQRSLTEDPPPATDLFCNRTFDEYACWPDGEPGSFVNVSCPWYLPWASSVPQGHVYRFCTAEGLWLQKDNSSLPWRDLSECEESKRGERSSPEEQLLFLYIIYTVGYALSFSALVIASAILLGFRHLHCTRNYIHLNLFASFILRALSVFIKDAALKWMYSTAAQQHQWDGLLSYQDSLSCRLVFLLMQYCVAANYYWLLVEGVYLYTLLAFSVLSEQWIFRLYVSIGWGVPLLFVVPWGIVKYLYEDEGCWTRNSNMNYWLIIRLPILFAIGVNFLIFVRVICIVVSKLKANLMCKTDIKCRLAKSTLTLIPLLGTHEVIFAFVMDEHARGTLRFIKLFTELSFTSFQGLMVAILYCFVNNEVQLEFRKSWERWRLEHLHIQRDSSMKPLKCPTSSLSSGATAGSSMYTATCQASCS

[3] = target: human GcgR (Homo sapiens, UniProt P47871); assay: Functional cAMP activity in the presence of 1% HSA
Chain of human GcgR (P47871 26-477): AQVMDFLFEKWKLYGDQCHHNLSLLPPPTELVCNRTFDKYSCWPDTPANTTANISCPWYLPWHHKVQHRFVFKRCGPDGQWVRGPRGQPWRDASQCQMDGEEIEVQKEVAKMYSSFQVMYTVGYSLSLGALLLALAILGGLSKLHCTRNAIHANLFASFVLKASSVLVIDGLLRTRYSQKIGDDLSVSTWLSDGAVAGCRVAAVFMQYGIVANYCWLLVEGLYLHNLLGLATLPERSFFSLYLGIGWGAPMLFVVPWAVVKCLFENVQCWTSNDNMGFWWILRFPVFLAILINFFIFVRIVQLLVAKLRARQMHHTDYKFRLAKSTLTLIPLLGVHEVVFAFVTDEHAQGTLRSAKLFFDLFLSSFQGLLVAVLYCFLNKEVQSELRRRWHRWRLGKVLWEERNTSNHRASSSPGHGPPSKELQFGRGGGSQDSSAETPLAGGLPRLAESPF

[4] = target: T1, hGIPR; assay: Functional cAMP activation in the presence of 0.1% casein (no HSA);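 on Relative cAMP EC50, hGIPR: intracellular cAMP rise after 30 min at 37 °C read by HTRF against a standard curve, scaled between buffer alone (0%) and top control ligand concentration (100%), four-parameter fit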;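 on Relative cAMP EC50, hGLP-1R: intracellular cAMP rise after 30 min at 37 °C read by HTRF, normalized between buffer only (0%) and maximal control ligand (100%), four-parameter variable-slope fit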;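 on Relative cAMP EC50, hGcgR: intracellular cAMP rise after 30 min at 37 °C, read by HTRF against a cAMP standard curve, scaled from buffer only (0%) to maximal control ligand response (100%)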
[5] = target: T2, hGLP-1R; assay: as above
[6] = target: hGcgR (Homo sapiens, UniProt P47871); assay: as above;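 further: intracellular cAMP rise after 30 min at 37 °C, read by HTRF against a cAMP standard curve, scaled from buffer only (0%) to maximal control ligand response (100%)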
Chain of hGcgR (P47871 26-477): as above

[7] = read-out: cAMP Rel EC50, hGLP-1R
[8] = in the presence of 0.1% casein (no HSA), geometric mean, read-out: Relative cAMP EC50, hGIPR
[9] = in the presence of 0.1% casein (no HSA), geometric mean, read-out: Relative cAMP EC50, hGLP-1R
[10] = in the presence of 0.1% casein (no HSA), geometric mean, read-out: Relative cAMP EC50, hGcgR
[11] = HEK-293 clonal cell line, in the presence of 1% HSA, geometric mean of relative EC50, read-out: cAMP Rel EC50, hGIPR
[12] = HEK-293 clonal cell line, in the presence of 1% HSA, geometric mean of relative EC50, read-out: cAMP Rel EC50, hGLP-1R
[13] = HEK-293 clonal cell line, in the presence of 1% HSA, geometric mean of relative EC50, read-out: cAMP Rel EC50, hGcgR

Row | Substance | EC50 ([1]; read-out: cAMP Rel EC50, hGIPR) | EC50 [2, 7] | EC50 ([3]; read-out: cAMP Rel EC50, hGcgR) | EC50 [4, 8] | EC50 [5, 9] | EC50 [6, 10] | EC50 [1, 11] | EC50 [2, 12] | EC50 [3, 13] | EC50 [1] | EC50 [2] | EC50 [3] | EC50 [4] | EC50 [5] | EC50 [6]
1 | H-Y[Aib]QGTFTSD[4Pal]S[Orn][αMeL]LD[Orn]K([Glu-γGlu-C18 diacid])AQ[Aib]AFIE[αMeY]LLEGGPSSGAPPPSGSEE-NH2 [Example 1066] | 69.9 nM | 1850 nM | 4260 nM | 0.446 nM | 9.8 nM | 25.4 nM |  |  |  |  |  |  |  |  | 
2 | H-Y[Aib]QGTFTSD[4Pal]S[Orn][αMeL]LD[Orn]K([dE-γGlu-C18 diacid])AQ[αMe4Pal]AFIEYLIAGGPSSGAPPPSGSEE-NH2 [Example 1063] | 26.6 nM | 626 nM | 2290 nM | 0.318 nM | 6.96 nM | 10.6 nM |  |  |  |  |  |  |  |  | 
3 | H-Y[Aib]QGTFTSD[4Pal]S[Orn][αMeL]LD[Orn]K([γGlu-γGlu-C18 diacid])AQ[Aib]AFIEYLLAGGPSSGAPPPSGSEE-NH2 [Example 1069] | 39.5 nM | 1290 nM | 2160 nM | 0.417 nM | 8.87 nM | 21.2 nM |  |  |  |  |  |  |  |  | 
4 | H-Y[Aib]QGTFTSD[4Pal]S[Orn][αMeL]LD[Orn]K([γGlu-γGlu-C18 diacid])AQ[Aib]AFIE[αMeY]LLEGGPSSGAPPPSGSEE-NH2 [Example 1064] | 62.5 nM | 912 nM | 1940 nM | 0.556 nM | 7.89 nM | 13.7 nM |  |  |  |  |  |  |  |  | 
5 | H-Y[Aib]QGTFTSD[4Pal]S[Orn][αMeL]LD[Orn]K([γGlu-γGlu-C18 diacid])AQ[αMe4Pal]AFIEYLIAGGPSSGEPPPSGE-NH2 [Example 983] | 19.4 nM | 207 nM | 576 nM | 0.289 nM | 2.35 nM | 4.75 nM |  |  |  |  |  |  |  |  | 
6 | H-Y[Aib]QGTFTSD[4Pal]S[Orn][αMeL]LD[Orn]K([γGlu-γGlu-C18 diacid])AQ[αMe4Pal]AFIEYLIAGGPSSGEPPPSGTE-NH2 [Example 984] | 23.5 nM | 160 nM | 409 nM | 0.232 nM | 2.07 nM | 4.5 nM |  |  |  |  |  |  |  |  | 
7 | H-Y[Aib]QGTFTSD[4Pal]S[Orn][αMeL]LD[Orn]K([γGlu-γGlu-C18 diacid])AQ[αMe4Pal]AFIEYLIAGGPSSGEPPPSGTEE-NH2 [Example 985] | 24 nM | 217 nM | 374 nM | 0.34 nM | 2.93 nM | 5.41 nM |  |  |  |  |  |  |  |  | 
8 | H-Y[Aib]QGTFTSD[4Pal]S[Orn][αMeL]LD[Orn]K([γGlu-γGlu-C18 diacid])AQ[αMe4Pal]AFIEYLIE[Aib]GPSSGAPPPSGS-NH2 [Example 939] | 14.1 nM | 287 nM | 423 nM | 0.143 nM | 2.75 nM | 2.41 nM |  |  |  |  |  |  |  |  | 
9 | H-Y[Aib]QGTFTSD[4Pal]S[Orn][αMeL]LD[Orn]K([γGlu-γGlu-C18 diacid])AQ[αMe4Pal]AFIEYLLAGGPSSGAPPPSGSEE-NH2 [Example 1068] | 20.2 nM | 1330 nM | 295 nM | 0.211 nM | 11.6 nM | 4.8 nM |  |  |  |  |  |  |  |  | 
10 | H-Y[Aib]QGTFTSD[4Pal]S[Orn][αMeL]LD[Orn]K([γGlu-γGlu-C18 diacid])AQ[αMe4Pal]AFIE[αMe4Pal]LIE[Aib]GPSSGEPPPSGS-NH2 [Example 991] | 14.8 nM | 315 nM | 405 nM | 0.119 nM | 3.91 nM | 3.03 nM |  |  |  |  |  |  |  |  | 
11 | H-Y[Aib]QGTFTSD[4Pal]S[Orn][αMeL]LD[Orn]K([γGlu-γGlu-C18 diacid])AQ[αMe4Pal]AFIE[αMeY]LIEGGPSSGAPPPSGS-NH2 [Example 1013] | 22.6 nM | 137 nM | 285 nM | 0.208 nM | 0.449 nM | 2 nM |  |  |  |  |  |  |  |  | 
12 | H-Y[Aib]QGTFTSD[4Pal]S[Orn][αMeL]LD[Orn]K([γGlu-γGlu-C18 diacid])AQ[αMe4Pal]EFIEYLLAGGPSSGAPPPSGSEE-NH2 [Example 1003] | 15.9 nM | 1950 nM | 371 nM | 0.272 nM | 42.4 nM | 5.07 nM |  |  |  |  |  |  |  |  | 
13 | H-Y[Aib]QGTFTSD[4Pal]S[Orn][αMeL]LD[Orn]K([γGlu-γGlu-C18 diacid])AQ[αMe4Pal]EFIE[αMeY]LIEGGPSSGAPPPSGSEE-NH2 [Example 973] | 60.1 nM | 1140 nM | 2270 nM | 0.503 nM | 6.1 nM | 17.6 nM |  |  |  |  |  |  |  |  | 
14 | H-Y[Aib]QGTFTSD[4Pal]S[Orn][αMeL]LD[Orn]K([γGlu-γGlu-C18 diacid])AQ[αMe4Pal]EFIE[αMeY]LLAGGPSSGAPPPSGSEE-NH2 [Example 996] |  |  |  | 0.2 nM | 98.1 nM | 14.9 nM | 11.2 nM | 4810 nM | 1160 nM |  |  |  |  |  | 
15 | H-Y[Aib]QGTFTSD[4Pal]S[Orn][αMeL]LD[Orn]K([γGlu-γGlu-C18 diacid])AQ[αMe4Pal]EFIE[αMeY]LLEGGPSSGAPPPSGSEE-NH2 [Example 976] | 82.7 nM | 2860 nM | 848 nM | 0.441 nM | 21.8 nM | 8.75 nM |  |  |  |  |  |  |  |  | 
16 | H-Y[Aib]QGTFTSD[4Pal]S[Orn][αMeL]LD[Orn]K([γGlu-γGlu-C18 diacid])AQ[αMe4Pal]QFIEYLIAGGPSSGAPPPSGSEE-NH2 [Example 1000] | 15.5 nM | 279 nM | 501 nM | 0.176 nM | 3.55 nM | 4.62 nM |  |  |  |  |  |  |  |  | 
17 | H-Y[Aib]QGTFTSD[4Pal]S[Orn][αMeL]LD[Orn]K([γGlu-γGlu-C18 diacid])AQ[αMe4Pal]QFIEYLLAGGPSSGAPPPSGSEE-NH2 [Example 1002] | 11.6 nM | 1290 nM | 197 nM | 0.119 nM | 9.09 nM | 1.89 nM |  |  |  |  |  |  |  |  | 
18 | H-Y[Aib]QGTFTSD[4Pal]S[Orn][αMeL]LD[Orn]K([γGlu-γGlu-C18 diacid])AQ[αMe4Pal]QFIE[αMeY]LLEGGPSSGAPPPSGSEE-NH2 [Example 975] |  |  |  |  |  |  |  |  |  | 30.1 nM | 1810 nM | 374 nM | 0.344 nM | 10.2 nM | 2.61 nM
19 | H-Y[Aib]QGTFTSD[4Pal]S[Orn][αMeL]LD[Orn]K([γGlu-γGlu-C18 diacid])AQ[αMe4Pal][Orn]FIEYLLAGGPSSGAPPPSGSEE-NH2 [Example 1004] | 35.4 nM | 973 nM | 237 nM | 0.519 nM | 9.34 nM | 2.67 nM |  |  |  |  |  |  |  |  | 
20 | H-Y[Aib]QGTFTSD[4Pal]S[Orn][αMeL]LD[Orn]K([γGlu-γGlu-C18 diacid])AQ[αMe4Pal][Orn]FIE[αMeY]LIEGGPSSGAPPPSGSEE-NH2 [Example 974] | 80.9 nM | 283 nM | 870 nM | 0.607 nM | 1.57 nM | 3.7 nM |  |  |  |  |  |  |  |  | 
21 | H-Y[Aib]QGTFTSD[4Pal]S[Orn][αMeL]LD[Orn]K([γGlu-γGlu-C18 diacid])AQ[αMe4Pal][Orn]FIE[αMeY]LLAGGPSSGAPPPSGSEE-NH2 [Example 997] |  |  |  | 0.373 nM | 20.7 nM | 5.01 nM | 27.8 nM | 1880 nM | 527 nM |  |  |  |  |  | 
22 | H-Y[Aib]QGTFTSD[4Pal]S[Orn][αMeL]LD[Orn]K([γGlu-γGlu-γGlu-C18 diacid])AQ[αMe4Pal]AFIEYLIE[Aib]GPSSGAPPPSGSE-NH2 [Example 943] | 23.1 nM | 382 nM | 960 nM | 0.233 nM | 3.58 nM | 6.58 nM |  |  |  |  |  |  |  |  | 
23 | H-Y[Aib]QGTFTSD[4Pal][αMeS]I[αMeL]LD[Orn]K([dE-γGlu-C18 diacid])AQ[αMe4Pal]QFIQ[αMeY]LIE[Aib]GPSSGAPPPSGGGE-NH2 [Example 1136] | 0.949 nM | 39.2 nM | 121 nM | 0.0131 nM | 0.453 nM | 1.26 nM |  |  |  |  |  |  |  |  | 
24 | H-Y[Aib]QGTFTSD[4Pal][αMeS]Q[αMeL]LD[Orn]K([dE-γGlu-C18 diacid])AQ[αMe4Pal]QFIE[αMeY]LIA[Aib]GPSSGAPPPSGGGE-NH2 [Example 1185] | 2.31 nM | 66.1 nM | 206 nM | 0.0266 nM | 0.762 nM | 1.64 nM |  |  |  |  |  |  |  |  | 
25 | H-Y[Aib]QGTFTSD[4Pal][αMeS]Q[αMeL]LD[Orn]K([dE-γGlu-C18 diacid])AQ[αMe4Pal]QFIE[αMeY]LIA[Aib]GPSSGEPPPSGGGE-NH2 [Example 1182] | 2.73 nM | 80.4 nM | 172 nM | 0.0316 nM | 0.797 nM | 1.24 nM |  |  |  |  |  |  |  |  | 
